Data as given in patent US20240352010A1, “SUBSTITUTED 1,2,4-THIADIAZOLYL NICOTINAMIDES, SALTS OR N-OXIDES THEREOF AND THEIR USE AS HERBICIDALLY ACTIVE SUBSTANCES” (BayerAktiengesellschaft, priority 2021, published 2024).

What was measured:
Assay type in all cases: in vivo
Veronica persica (VERPE) = test: Herbicidal pre-emergence action, VERPE
Source text: (§1) Seeds of mono- and dicotyledonous weed plants were sown in plastic pots (double sowings with one species of mono- and one species of dicotyledonous weed plants per pot), in sandy loam, and covered with soil. The compounds according to the invention, formulated in the form of wettable powders (WP) or as emulsifiable concentrates (EC), were applied to the surface of the covering soil as an aqueous suspension or as an emulsion, with the addition of 0.5% of an additive, at an application rate of 600 litres of water per hectare (converted). Following treatment, the pots were placed in a greenhouse and kept under optimum growth conditions for the test plants. The visual grading of the damage to the test plants is carried out after ca. 3 weeks in comparison to untreated controls (herbicidal effect in percent (%): 100% effect=plants have died, 0% effect=as control plants). Seeds of mono- and dicotyledonous weed plants were sown in plastic pots (double sowings with one species of mono- and one species of dicotyledonous weed plants per pot), in sandy loam, and covered with soil. The compounds according to the invention, formulated in the form of wettable powders (WP) or as emulsifiable concentrates (EC), were applied to the surface of the covering soil as an aqueous suspension or as an emulsion, with the addition of 0.5% of an additive, at an application rate of 600 litres of water per hectare (converted). Following treatment, the pots were placed in a greenhouse and kept under optimum growth conditions for the test plants. The visual grading of the damage to the test plants is carried out after ca. 3 weeks in comparison to untreated controls (herbicidal effect in percent (%): 100% effect=plants have died, 0% effect=as control plants).

Poa annua (POAAN) = test: Herbicidal pre-emergence action, POAAN
Source text: as §1

[1] = tested on: Echinochloa crus-galli (ECHCG); test: Herbicidal pre-emergence action, ECHCG
Source text: as §1

Setaria viridis (SETVI) = test: Herbicidal pre-emergence action, SETVI
Source text: as §1

[2] = tested on: Abutilon theophrasti (ABUTH); test: Herbicidal post-emergence action, ABUTH; details: 1280 g/ha, assessed visually after ca. 3 weeks vs untreated controls (Table B1)
Source text: (§2) Seeds of mono- and dicotyledonous weed plants were sown in plastic pots (double sowings with one species of mono- and one species of dicotyledonous weed plants per pot), in sandy loam, covered with soil and grown under controlled growth conditions. 2 to 3 weeks after sowing, the test plants were sprayed in the single-leaf stage. The compounds according to the invention, formulated in the form of wettable powders (WP) or as emulsifiable concentrates (EC), were sprayed onto the green plant parts as an aqueous suspension or as an emulsion, with the addition of 0.5% of an additive, at an application rate of 600 litres of water per hectare (converted). The test plants were placed in the greenhouse for ca. 3 weeks under optimum growth conditions, and then the effect of the preparations is assessed visually in comparison with untreated controls (herbicidal effect in percent (%): 100% effect=plants have died, 0% effect=as control plants).

Kochia scoparia (KCHSC) = test: Herbicidal post-emergence action, KCHSC
Source text: as §2, with “plants).[…]” for “plants).”

[3] = tested on: Digitaria sanguinalis (DIGSA); test: Herbicidal pre-emergence action, DIGSA
Source text: as §1

[4] = tested on: Alopecurus myosuroides (ALOMY); test: Herbicidal pre-emergence action, ALOMY; details: 1280 g/ha, visual grading after ca. 3 weeks vs untreated controls (Table A12)
Source text: Seeds of mono- and dicotyledonous weed plants were sown in plastic pots (double sowings with one species of mono- and one species of dicotyledonous weed plants per pot), in sandy loam, and covered with soil. The compounds according to the invention, formulated in the form of wettable powders (WP) or as emulsifiable concentrates (EC), were applied to the surface of the covering soil as an aqueous suspension or as an emulsion, with the addition of 0.5% of an additive, at an application rate of 600 litres of water per hectare (converted). Following treatment, the pots were placed in a greenhouse and kept under optimum growth conditions for the test plants. The visual grading of the damage to the test plants is carried out after ca. 3 weeks in comparison to untreated controls (herbicidal effect in percent (%): 100% effect=plants have died, 0% effect=as control plants).

[5] = tested on: Digitaria sanguinalis (DIGSA); test: Herbicidal post-emergence action, DIGSA; details: 1280 g/ha, assessed visually after ca. 3 weeks vs untreated controls (Table B12)
Source text: as §2

[6] = tested on: Alopecurus myosuroides (ALOMY); test: Herbicidal post-emergence action, ALOMY; details: 1280 g/ha, assessed visually after ca. 3 weeks vs untreated controls (Table B2)
Source text: as §2

[7] = 320 g/ha, visual grading after ca. 3 weeks vs untreated controls (Table C7)
[8] = 1280 g/ha, visual grading after ca. 3 weeks vs untreated controls (Table A10)
[9] = 320 g/ha, visual grading after ca. 3 weeks vs untreated controls (Table C4)
[10] = 1280 g/ha, visual grading after ca. 3 weeks vs untreated controls (Table A7)
[11] = 1280 g/ha, visual grading after ca. 3 weeks vs untreated controls (Table A3)
[12] = 320 g/ha, visual grading after ca. 3 weeks vs untreated controls (Table C5)
[13] = 1280 g/ha, visual grading after ca. 3 weeks vs untreated controls (Table A8)
[14] = 320 g/ha, assessed visually after ca. 3 weeks vs untreated controls (Table D1)
[15] = 1280 g/ha, assessed visually after ca. 3 weeks vs untreated controls (Table B4)
[16] = 1280 g/ha, visual grading after ca. 3 weeks vs untreated controls (Table A2)

O=C(Nc1ncns1)c1c(C2CC2)ccnc1Cl [Example I-003, 2-chloro-4-cyclopropyl-N-(1,2,4-thiadiazol-5-yl)pyridine-3-carboxamide]
100%: herbicidal effect in percent, POAAN (Poa annua (POAAN); [10]) | herbicidal effect in percent, SETVI (Setaria viridis (SETVI); [12]) | herbicidal effect in percent, SETVI (Setaria viridis (SETVI); [13]) | herbicidal effect in percent, KCHSC (Kochia scoparia (KCHSC); [15])
90%: herbicidal effect in percent, VERPE (Veronica persica (VERPE); [7]) | herbicidal effect in percent, VERPE (Veronica persica (VERPE); [8]) | herbicidal effect in percent, POAAN (Poa annua (POAAN); [9]) | herbicidal effect in percent, ECHCG [1, 11] | herbicidal effect in percent, ABUTH [2] | herbicidal effect in percent, KCHSC (Kochia scoparia (KCHSC); [14]) | herbicidal effect in percent, DIGSA [3, 16]

O=C(Nc1ncns1)c1c(C2CC2)ccnc1F [Example I-005]
90%: herbicidal effect in percent, VERPE (Veronica persica (VERPE); [7]) | herbicidal effect in percent, ECHCG ([1]; 320 g/ha, visual grading after ca. 3 weeks vs untreated controls (Table C9)) | herbicidal effect in percent, ECHCG [1, 11] | herbicidal effect in percent, DIGSA ([3]; 320 g/ha, visual grading after ca. 3 weeks vs untreated controls (Table C10)) | herbicidal effect in percent, DIGSA [3, 16] | herbicidal effect in percent, ALOMY [6]
100%: herbicidal effect in percent, VERPE (Veronica persica (VERPE); [8]) | herbicidal effect in percent, POAAN (Poa annua (POAAN); [9]) | herbicidal effect in percent, POAAN (Poa annua (POAAN); [10]) | herbicidal effect in percent, SETVI (Setaria viridis (SETVI); [12]) | herbicidal effect in percent, SETVI (Setaria viridis (SETVI); [13]) | herbicidal effect in percent, ALOMY [4] | herbicidal effect in percent, KCHSC (Kochia scoparia (KCHSC); [14]) | herbicidal effect in percent, KCHSC (Kochia scoparia (KCHSC); [15]) | herbicidal effect in percent, DIGSA [5]

O=C(Nc1nc(Cl)ns1)c1c(C2CC2)ccnc1Cl [Example I-013]
90%: herbicidal effect in percent, VERPE (Veronica persica (VERPE); [8]) | herbicidal effect in percent, ECHCG [1, 11] | herbicidal effect in percent, ABUTH [2] | herbicidal effect in percent, ALOMY [6]
